Data set [1] has as its target T1, Solute carrier organic anion transporter family member 1B1 (Homo sapiens, UniProt Q9Y6L6).
T1 sequence (Q9Y6L6 whole entry): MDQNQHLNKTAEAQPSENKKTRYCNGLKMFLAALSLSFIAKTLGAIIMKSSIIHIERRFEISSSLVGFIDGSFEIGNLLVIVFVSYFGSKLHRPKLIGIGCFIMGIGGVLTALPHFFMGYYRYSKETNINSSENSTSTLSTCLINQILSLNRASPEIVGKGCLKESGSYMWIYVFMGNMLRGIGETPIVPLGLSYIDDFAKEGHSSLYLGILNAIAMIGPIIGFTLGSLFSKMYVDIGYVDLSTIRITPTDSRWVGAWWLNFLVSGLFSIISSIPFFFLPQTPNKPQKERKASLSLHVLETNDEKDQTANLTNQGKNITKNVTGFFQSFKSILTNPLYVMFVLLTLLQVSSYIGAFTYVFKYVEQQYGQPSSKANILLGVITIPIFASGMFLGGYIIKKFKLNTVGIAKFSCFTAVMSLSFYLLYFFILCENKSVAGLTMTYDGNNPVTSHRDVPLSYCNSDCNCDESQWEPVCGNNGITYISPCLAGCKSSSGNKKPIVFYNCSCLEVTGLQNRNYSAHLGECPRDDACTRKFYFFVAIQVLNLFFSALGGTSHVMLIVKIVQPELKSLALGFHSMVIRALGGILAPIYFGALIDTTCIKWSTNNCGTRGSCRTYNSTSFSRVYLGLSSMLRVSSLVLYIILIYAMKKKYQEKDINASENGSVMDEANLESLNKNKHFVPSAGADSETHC
To be noted: chinese hamster, cho, 10 µM.

In data set [2] the target is T2, Solute carrier organic anion transporter family member 1B3 (Homo sapiens, UniProt Q9NPD5).
T2 sequence (Q9NPD5 whole entry): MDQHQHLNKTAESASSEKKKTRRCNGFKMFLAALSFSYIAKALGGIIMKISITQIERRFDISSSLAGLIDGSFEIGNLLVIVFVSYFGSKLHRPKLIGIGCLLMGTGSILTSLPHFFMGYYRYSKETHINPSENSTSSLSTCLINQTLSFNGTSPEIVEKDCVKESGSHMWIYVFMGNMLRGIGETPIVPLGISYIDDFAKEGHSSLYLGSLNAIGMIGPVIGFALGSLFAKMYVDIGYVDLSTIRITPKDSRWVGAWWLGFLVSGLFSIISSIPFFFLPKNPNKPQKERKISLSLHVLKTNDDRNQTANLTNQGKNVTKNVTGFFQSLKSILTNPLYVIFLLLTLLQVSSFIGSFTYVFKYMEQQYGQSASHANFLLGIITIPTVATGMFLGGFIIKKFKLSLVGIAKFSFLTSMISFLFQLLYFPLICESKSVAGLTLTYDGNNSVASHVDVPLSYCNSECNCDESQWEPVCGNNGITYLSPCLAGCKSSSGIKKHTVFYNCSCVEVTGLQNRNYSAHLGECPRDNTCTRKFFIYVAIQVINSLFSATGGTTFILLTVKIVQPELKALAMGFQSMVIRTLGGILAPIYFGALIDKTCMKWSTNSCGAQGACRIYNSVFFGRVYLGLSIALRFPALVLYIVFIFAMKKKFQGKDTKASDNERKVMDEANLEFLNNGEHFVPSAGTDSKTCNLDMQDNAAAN
To be noted: chinese hamster, cho, 10 µM.

Data on 48 molecules can be found in ChEMBL document CHEMBL3039007, “Structure-based identification of OATP1B1/3 inhibitors” (Mol Pharmacol, 2013).

As to `CCOc1cccc(C(=O)c2ccc(O)c(O)c2O)c1`, the residual activity was 134.3% in data set [1] and 108.6% in data set [2].
With `CNc1ccccc1C(=O)O`, the residual activity in data set [1] is listed as 90.95%; in data set [2], 100.4%.
With `CC(=O)Oc1ccc2c(c1OC(C)=O)OC[C@]1(O)Cc3c(cc(OC(C)=O)c(OC(C)=O)c3OC(C)=O)[C@H]21`, the figures for the residual activity in data set [1] and in data set [2] were 101.4% and 111.5%, respectively.
In the same order, the values of `C=C1C[C@H]2O[C@]2(C)CC[C@@H]2[C@@H]1CC2(C)C` are 54.1% and 80.12%.
For `C[C@H]1[C@H](C)CC[C@@]23CC[C@]4(C)[C@@](C=C[C@@H]5[C@@]6(C)CC[C@H](O)C(C)(C)[C@@H]6CC[C@]54C)(OC2=O)[C@H]13`, in that order: 114.4% and 98.51%.
For `C[C@@H]1C[C@H](O)[C@@]2(O)[C@]13CC(=O)OC[C@]2(C)[C@@](C)(O)C(=O)C3`, in that order: 95.73% and 109.4%.
For the molecule `CC1(C)C[C@@H]2[C@H]1CC[C@]1(C)C[C@@]2(O)CC[C@H]1O`, the residual activity in data set [1] is recorded as 81.35%; in data set [2], 87.7%.
Turning to `COc1ccc(C(=O)O[C@@H]2CC[C@@]3(C)[C@@H]4CC[C@H]5[C@]6(O)C[C@H](O)[C@@]7(O)[C@@H](CN8C[C@@H](C)CC[C@H]8[C@@]7(C)O)[C@]6(O)C[C@@]53O[C@@]42O)cc1OC.O=S(=O)(O)O`, the residual activity in data set [2] is recorded as 91.85%.
On the same count and under the same terms, then `CC(=O)Oc1ccc2c(c1)CC[C@@H]1[C@@H]2CC[C@]2(C)[C@@H](OC(C)=O)CC[C@@H]12`, with 113.7%.
For `Cc1cc(O)cc(=O)o1`, the results for the residual activity in data set [1] and in data set [2] were 87.56% and 97.35%, respectively.
`CCCCC(CC)CN=C(N)N=C(N)NCCCCCCNC(N)=NC(N)=NCC(CC)CCCC.Cl` (stereo unspecified) [ALEXIDINE HYDROCHLORIDE]: the residual activity in data set [1] was found to be 69.95%.
For the molecule `O=P(O)(O)O.c1ccc(CN(CC2=NCCN2)c2ccccc2)cc1` [ANTAZOLINE PHOSPHATE], in data set [2], the residual activity was found to be 97.11%.
On the same count and under the same terms, with `CC(=O)Oc1ccccc1C(=O)O` [ASPIRIN] the figure was 96.37%.
Take `CCCCCCCCCCCCC[N+](C)(C)Cc1ccccc1.[Cl-]` [BENZALKONIUM CHLORIDE]: the residual activity in data set [1] came out at 78.42%.
Turning to `COc1ccc(-c2oc3cc(O[C@@H]4O[C@H](CO)[C@@H](O)[C@H](O)[C@H]4O)c(OC)c(O)c3c(=O)c2OC)cc1O` [CENTAUREIN], the residual activity in data set [2] came to 91.7%.
On the same count and under the same terms, then `CC1=C(C(=O)O)N2C(=O)[C@@H](NC(=O)[C@H](N)C3=CCC=CC3)[C@H]2SC1` [CEPHRADINE], with 100.4%.
The same measure, in the same setting: with `Clc1ccccc1C(c1ccccc1)(c1ccccc1)n1ccnc1` [CLOTRIMAZOLE] the figure was 105.9%; with `CC(=O)O[C@]1(C(C)=O)CC[C@H]2[C@@H]3C=C(Cl)C4=CC(=O)[C@@H]5C[C@@H]5[C@]4(C)[C@H]3CC[C@@]21C` [CYPROTERONE ACETATE], 103.2%; with `CC(=O)OCC(=O)[C@H]1CC[C@H]2[C@@H]3CCC4=CC(=O)CC[C@]4(C)[C@H]3CC[C@]12C` [DESOXYCORTICOSTERONE ACETATE], 88.97%.
On to `C[C@@H]1C[C@H]2[C@@H]3CCC4=CC(=O)C=C[C@]4(C)[C@@]3(F)[C@@H](O)C[C@]2(C)[C@@]1(O)C(=O)CO` [DEXAMETHASONE], for which the residual activity in data set [2] is recorded as 103.9%.
With `CC/C(=C(/CC)c1ccc(O)cc1)c1ccc(O)cc1` [DIETHYLSTILBESTROL], in data set [2], the residual activity worked out at 45.56%.
Still for that read-out and setting: with `CC1(C)OC(=O)NC1=O` [DIMETHADIONE] the figure was 109.1%.
Same read-out and setting: with `OCCN(CCO)c1nc(N2CCCCC2)c2nc(N(CCO)CCO)nc(N3CCCCC3)c2n1` [DIPYRIDAMOLE] the figure was 89.24%.
For the molecule `O=c1[nH]c2ccccc2n1CCCN1CCC(n2c(=O)[nH]c3cc(Cl)ccc32)CC1` [DOMPERIDONE], the residual activity in data set [2] is 111%.
On the same count and under the same terms, with `CN(C)CCC=C1c2ccccc2COc2ccccc21.Cl` [DOXEPIN HYDROCHLORIDE] the figure was 101.8%; with `C[C@H]1c2cccc(O)c2C(=O)C2=C(O)[C@]3(O)C(=O)C(C(N)=O)=C(O)[C@@H](N(C)C)[C@@H]3[C@@H](O)[C@@H]21.Cl` [DOXYCYCLINE HYDROCHLORIDE], 106%; with `CN(C)CCOC(C)(c1ccccc1)c1ccccn1.O=C(O)CCC(=O)O` (stereo unspecified) [DOXYLAMINE SUCCINATE], 108.8%.
The same measure, in the same setting: with `O=C(CCCN1CC=C(n2c(=O)[nH]c3ccccc32)CC1)c1ccc(F)cc1` [DROPERIDOL] the figure was 147.6%.
The same measure, in the same setting: with `CN[C@@H](C)[C@H](O)c1ccccc1.Cl` [EPHEDRINE HYDROCHLORIDE] the figure was 105.1%.
Take `C=C1CC[C@H](O)C/C1=C/C=C1\CCC[C@]2(C)[C@@H]([C@H](C)/C=C/[C@H](C)C(C)C)CC[C@@H]12` [ERGOCALCIFEROL]: in data set [2], the residual activity stood at 28.81%.
For the molecule `CC(=O)Oc1ccc2c(c1)CC[C@@H]1[C@@H]2CC[C@]2(C)[C@@H](O)CC[C@@H]12` [ESTRADIOL ACETATE], the residual activity in data set [2] was 101%.
Same read-out and setting: then `CCC(=O)O[C@H]1CC[C@H]2[C@@H]3CCc4cc(O)ccc4[C@H]3CC[C@]12C` [ESTRADIOL PROPIONATE], with 111.9%; and `CCOc1ccc(Cc2nccc3cc(OCC)c(OCC)cc23)cc1OCC.Cl` [ETHAVERINE HYDROCHLORIDE], with 156.2%; and `COc1cc(O)c2c(=O)cc(C)oc2c1CC=C(C)C` [HETEROPEUCENIN, METHYL ETHER], with 110.3%.
Still for that read-out and setting: then `COc1ccc2c(c1)O[C@H]1c3ccc(OC)cc3OC[C@@H]21` [HOMOPTEROCARPIN], with 109.3%.
Regarding `CN1[C@@H]2CC[C@H]1C[C@@H](OC(=O)[C@H](CO)c1ccccc1)C2` [HYOSCYAMINE], in data set [1], the residual activity turned out to be 97.76%.
In the case of `CN1C[C@H](CNC(=O)OCc2ccccc2)C[C@@H]2c3cccc4c3c(cn4C)C[C@H]21` [METERGOLINE], the residual activity in data set [2] turned out to be 93.79%.
For `CCOC(=O)C1=C(C)NC(C)=C(C(=O)OC)C1c1cccc([N+](=O)[O-])c1` (stereo unspecified) [NITRENDIPINE], the residual activity in data set [2] was found to be 77.72%.
Take `COc1ccc(-c2cc(=O)c3c(OC)c(OC)c(OC)c(OC)c3o2)cc1OC` [NOBILETIN]: in data set [2], the residual activity is recorded as 133.3%.
As for `O=C(O)CCc1nc(-c2ccccc2)c(-c2ccccc2)o1` [OXAPROZIN], in data set [2], the residual activity turned out to be 71.47%.
`CC(=O)O[C@H]1C(=O)[C@@]2(C)[C@H]([C@H](OC(=O)c3ccccc3)[C@]3(O)C[C@H](OC(=O)[C@H](O)[C@@H](NC(=O)c4ccccc4)c4ccccc4)C(C)=C1C3(C)C)[C@]1(OC(C)=O)CO[C@@H]1C[C@@H]2O` [PACLITAXEL]: the residual activity in data set [2] stood at 52.9%.
Still for that read-out and setting: with `CCCCC1C(=O)N(c2ccccc2)N(c2ccccc2)C1=O` [PHENYLBUTAZONE] the figure was 62.24%; with `COc1cc(O)cc(/C=C/c2ccccc2)c1` [PINOSYLVIN METHYL ETHER], 91.5%.
In the case of `CC(=O)[C@H]1CC[C@H]2[C@@H]3CC=C4C[C@@H](O)CC[C@]4(C)[C@H]3CC[C@]12C` [PREGNENOLONE], in data set [2], the residual activity was found to be 110.4%.
Same read-out and setting: then `COC1=C[C@@H](C)[C@@H]2C[C@H]3OC(=O)C[C@H]4C(C)=C(OC)C(=O)[C@H]([C@@]2(C)C1=O)[C@@]34C` [QUASSIN], with 100.5%.
Same read-out and setting: with `COc1ccc(/C=C/c2cc(O)cc(O)c2)cc1` [RESVERATROL 4'-METHYL ETHER] the figure was 135%; with `COc1ccc(-c2cc(=O)c3c(OC)c(OC)c(OC)c(OC)c3o2)cc1` [TANGERETIN], 175%; with `CC(=O)Oc1c(C)c(C)c2c(c1C)CCC(C)(CCCC(C)CCCC(C)CCCC(C)C)O2` (stereo not drawn) [alpha-TOCHOPHERYL ACETATE], 93.84%.
